# Source: ChEMBL document CHEMBL5728326, “Aminopyridine derivatives and their use as selective ALK-2 inhibitors” (2021)
# Assays:
# [1] = biological target: Activin receptor type-1-like (Homo sapiens, UniProt P37023)
# [2] = biological target: Bone morphogenetic protein receptor type-1B (Homo sapiens, UniProt O00238)
# Chain of Bone morphogenetic protein receptor type-1B (O00238 14-502 limits assumed, change not shown): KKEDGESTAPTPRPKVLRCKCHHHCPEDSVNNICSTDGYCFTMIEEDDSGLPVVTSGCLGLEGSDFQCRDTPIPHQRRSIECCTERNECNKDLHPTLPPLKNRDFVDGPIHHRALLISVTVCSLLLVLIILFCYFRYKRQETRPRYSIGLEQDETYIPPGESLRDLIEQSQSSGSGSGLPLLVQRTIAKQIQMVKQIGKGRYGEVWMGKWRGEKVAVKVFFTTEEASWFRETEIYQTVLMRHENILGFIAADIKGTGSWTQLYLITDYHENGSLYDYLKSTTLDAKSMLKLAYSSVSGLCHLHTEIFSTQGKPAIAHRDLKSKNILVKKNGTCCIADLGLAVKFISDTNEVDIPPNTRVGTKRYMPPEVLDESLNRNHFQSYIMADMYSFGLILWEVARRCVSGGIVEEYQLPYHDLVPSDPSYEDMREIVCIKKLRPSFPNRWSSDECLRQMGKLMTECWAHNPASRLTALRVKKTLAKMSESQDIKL
# Chain of Activin receptor type-1-like (P37023 22-503 limits assumed, change not shown): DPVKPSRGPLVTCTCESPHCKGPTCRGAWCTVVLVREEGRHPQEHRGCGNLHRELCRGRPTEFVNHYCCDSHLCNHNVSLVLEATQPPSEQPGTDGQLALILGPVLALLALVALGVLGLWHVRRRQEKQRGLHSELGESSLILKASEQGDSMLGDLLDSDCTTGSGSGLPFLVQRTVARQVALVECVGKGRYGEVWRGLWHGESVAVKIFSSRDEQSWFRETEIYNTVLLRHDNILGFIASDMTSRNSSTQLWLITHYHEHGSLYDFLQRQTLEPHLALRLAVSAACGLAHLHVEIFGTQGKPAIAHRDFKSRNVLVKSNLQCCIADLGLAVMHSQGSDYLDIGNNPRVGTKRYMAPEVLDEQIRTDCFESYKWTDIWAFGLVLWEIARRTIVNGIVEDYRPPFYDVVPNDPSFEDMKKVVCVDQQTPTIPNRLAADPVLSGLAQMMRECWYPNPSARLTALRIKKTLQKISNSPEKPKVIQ
compound,measurement,setting,value
NC(=O)c1ccc(-c2cnc(N)c(C(=O)N[C@H]3CC[C@@H](O)CC3)c2)cc1,IC50,[1],890 nM
same,IC50,[2],10 µM
